Paper PMC12818745 (ACS Chemical Neuroscience, 2025)

Legend:
[1] = biological target: T1, Aβ42 aggregation (Homo sapiens, UniProt P05067); experiment: Thioflavin S assay of Aβ42 aggregation in E. coli cells overexpressing Aβ42; type: cell-based, Escherichia coli; details: read-out: Aβ42 inhibition %
T1 construct: expressed in transfected cells; host or cells: E. coli BL21 (DE3), pET vector
Experimental: (§1) The antiaggregating profiles of both series A and B were evaluated using a fluorescence Thioflavin S (ThS) assay in cellulo, which monitors ThS fluorescence in the presence of β-sheet-rich structures, such as Aβ and tau protein aggregates. This method, based on recombinant Escherichia coli (E. coli) bacteria overexpressing insoluble aggregates, offers a simple and cost-effective approach to model aggregation processes in mammalian systems and has been validated for use in drug discovery studies. , Compounds were tested at a screening concentration of 50 μM for their ability to inhibit Aβ42 aggregation. The results, summarized in Table , reveal distinct antiaggregating profiles between series A and B, which are once again influenced by their structural differences.
42 Amino acid Aβ42 was cloned and overexpressed in E. coli BL21 (DE3) competent cells using the pET vector harboring the DNA sequence of Aβ42. Due to the addition of the initiation codon ATG preceding genes, the resulting overexpressed peptide contained an additional methionine residue at its N-terminus. For the preparation of overnight cultures, a colony of BL21 (DE3) cells carrying the plasmid for expression was inoculated in 10 mL of M9 minimal medium supplemented with 50 μg mL^–1 kanamycin at 37 °C. Subsequently, a 1:500 dilution of the overnight culture was added to fresh M9 minimal medium containing 50 μg mL^–1 kanamycin and 25 μM ThS. The bacterial culture was then incubated at 37 °C with agitation at 250 rpm. Upon reaching an OD600 of 0.6, 980 μL of the culture was transferred into 1.5 mL Eppendorf tubes, each containing 10 μL of the compound to be tested dissolved in DMSO and 10 μL of 100 mM isopropyl 1-thio-β-D-galactopyranoside (IPTG) or, alternatively, 10 μL of water for the noninduced controls. The final compound concentration was adjusted to […]. The samples were allowed to grow overnight at 37 °C with agitation at 1400 rpm using a Thermomixer (Eppendorf). Negative controls, representing maximum amyloid presence, utilized free DMSO.
(§2) ThS (T1892) and all other chemical reagents were purchased from Sigma (St. Louis, MO). Stock solutions of ThS (250 μM) were prepared using doubly distilled water purified via a Milli-Q system (Millipore). For the fluorescence assay, ThS spectra were recorded utilizing an AmincoBowman series 2 luminescence spectrophotometer (Aminco-Bowman AB2, SLM Aminco, Rochester, NY) within the range of 460 to 600 nm at a temperature of 25 °C. The excitation wavelength employed was 445 nm, with slit widths set at 4 nm. The emission at 485 nm, corresponding to the ThS peak observed in the presence of amyloids, was recorded. To standardize ThS fluorescence relative to bacterial concentration in both in vitro and cell-based assays, the OD600 was determined using a Shimadzu UV-2401 PC UV–vis spectrophotometer. Fluorescence normalization was executed by setting the ThS fluorescence of bacterial cells expressing the peptide or protein in the absence of the drug as 100%, while that of bacterial cells not expressing the peptide or protein was established as 0%.

[2] = biological target: AChE (Electrophorus electricus, UniProt O42275); experiment: Kinetic analysis (Lineweaver–Burk), AChE; type: biochemical; details: Lineweaver–Burk plots, substrate 50–800 μM
AChE, sequence (O42275 24-633): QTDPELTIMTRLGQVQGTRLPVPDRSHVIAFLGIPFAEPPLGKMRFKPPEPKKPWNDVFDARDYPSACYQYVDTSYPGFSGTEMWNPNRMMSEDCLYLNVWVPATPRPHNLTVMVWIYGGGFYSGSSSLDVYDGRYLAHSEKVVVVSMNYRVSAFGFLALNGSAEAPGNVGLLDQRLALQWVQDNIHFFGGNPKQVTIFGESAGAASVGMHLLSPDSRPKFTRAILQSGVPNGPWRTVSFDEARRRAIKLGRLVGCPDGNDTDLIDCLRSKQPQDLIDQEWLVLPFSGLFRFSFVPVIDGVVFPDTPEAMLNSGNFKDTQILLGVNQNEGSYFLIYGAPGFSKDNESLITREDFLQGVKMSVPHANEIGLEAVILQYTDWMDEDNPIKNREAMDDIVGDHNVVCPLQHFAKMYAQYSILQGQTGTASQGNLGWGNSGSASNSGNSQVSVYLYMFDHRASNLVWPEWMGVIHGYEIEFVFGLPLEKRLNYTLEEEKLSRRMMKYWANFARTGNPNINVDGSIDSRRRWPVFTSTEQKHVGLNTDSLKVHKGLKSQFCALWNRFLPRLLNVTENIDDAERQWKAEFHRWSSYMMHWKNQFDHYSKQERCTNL
Experimental: Based on the computational predictions, derivatives 10 (series A) and 11r (series B) were initially expected to interact with both CAS and PAS of AChE and BChE. However, to better understand the actual mechanism of action of these compounds, kinetic studies were performed (Figure ). […].
[…]. The enzymatic reactions and measurements were performed using the same assay conditions, as described above for the inhibition of both enzymes. All experiments were performed in triplicate. Linear regression analysis was performed with GraphPad Prism 8.0.2 (GraphPad Software Inc.).

[3] = biological target: T2, Tau protein aggregation (Homo sapiens, UniProt P10636); experiment: Thioflavin S assay of tau protein aggregation in E. coli cells overexpressing tau; type: cell-based, Escherichia coli; details: read-out: Tau inhibition %
T2 construct: For the cloning and overexpression of full-length tau protein; expressed in transfected cells; host or cells: E. coli BL21 (DE3) carrying pTARA and pRKT42
T2 sequence (P10636 other isoform, or with tags, fused parts or gaps): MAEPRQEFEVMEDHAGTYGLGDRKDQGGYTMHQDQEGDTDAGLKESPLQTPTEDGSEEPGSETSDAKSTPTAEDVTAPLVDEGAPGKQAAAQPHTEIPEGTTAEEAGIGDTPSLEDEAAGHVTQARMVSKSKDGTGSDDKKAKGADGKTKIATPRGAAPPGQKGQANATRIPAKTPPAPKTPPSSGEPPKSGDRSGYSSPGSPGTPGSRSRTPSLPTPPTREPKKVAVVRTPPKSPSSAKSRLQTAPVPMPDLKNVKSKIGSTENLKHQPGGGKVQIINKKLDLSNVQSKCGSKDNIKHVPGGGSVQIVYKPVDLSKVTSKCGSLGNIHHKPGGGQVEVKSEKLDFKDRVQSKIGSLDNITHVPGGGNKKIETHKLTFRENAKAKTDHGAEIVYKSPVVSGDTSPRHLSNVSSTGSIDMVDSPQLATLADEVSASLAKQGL
Experimental: as §1
This strategic extension aimed to validate the chromeno[3,4-b]-xanthone scaffold for related aggregation targets, considering the structural and pathological similarities between Aβ and tau aggregation processes. […]. […] Nevertheless, it is important to interpret the results cautiously, as the inability of certain compounds to cross bacterial membranes, may have underestimated their true inhibitory activity in the assay.
For the cloning and overexpression of full-length tau protein, E. coli BL21 (DE3) competent cells were transformed first with the pTARA vector containing the RNA polymerase gene of phage T7 (T7RP), controlled by the PBAD promoter. Subsequently, E. coli BL21(DE3) competent cells containing pTARA were transformed with the pRKT42 vector encoding four repeats of tau protein in two inserts. Similar to the procedure for Aβ42, overnight cultures were prepared by inoculating colonies of BL21 (DE3) cells bearing the plasmids in M9 medium supplemented with 0.5% glucose, 50 μg mL^–1 ampicillin, and 12.5 μg mL^–1 chloramphenicol at 37 °C. Upon induction, a 1:500 dilution of the overnight culture was added to fresh M9 minimal medium containing 0.5% glucose, 50 μg mL^–1 ampicillin, 12.5 μg mL^–1 chloramphenicol, and 25 μM ThS. The subsequent steps mirrored those for the Aβ assay, including the addition of the compound to be tested dissolved in DMSO and 10 μL of 25% arabinose or, alternatively, 10 μL of water for the noninduced controls, with a final compound concentration of […]. Negative controls for tau overexpression utilized free DMSO.
as §2

[4] = system: Aβ42 aggregates in SH-SY5Y (SHwt) cells; experiment: Confocal microscopy (ThT) of Aβ42 aggregates in SH-SY5Y cells expressing APP695; details: 25 μM compound with Aβ42 10 μM, 48 h
Experimental: A stock solution of Aβ42 (GenScript) was prepared in DMSO to a concentration of 2000 μM. SH-SY5Y cells stably expressing wild-type APP695 (SHwt) were used. The cells were cultured in Dulbecco’s Modified Eagle Medium (DMEM, Gibco), supplemented with 10% of Fetal Bovine Serum (FBS, Sigma-Aldrich), and 2% of Pen-Strep-Glut (Gibco). […] 2.0 × 10^4 SH-WT cells were plated in 24-well plates and incubated for 24 h, in 12 ømm glass coverslips. […] Cells incubated with Aβ42 and 1% DMSO were used as the positive control. After this period, the medium was changed to fresh DMEM medium without FBS, and the cells were incubated for another 24 h. After the incubation period, cells were washed with PBS, fixed in 4% formaldehyde for 30 min, permeabilized with 0.2% Triton X-100 in PBS for 10 min and blocked with 1% BSA for 10 min. […] Cells were washed three times between each step. Coverslips with cells were mounted with CitiFluor MWL4–88 (Electron Microscopy Sciences).

T1 sequence (P05067 672-713): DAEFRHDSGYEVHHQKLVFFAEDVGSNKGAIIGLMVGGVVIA

SMILES | inhibition at 50 µM [1] [%] | Type of inhibition, AChE [2] | inhibition at 50 µM [3] [%] | Reduction in intracellular Aβ42 aggregates (ThT fluorescence) [4]
C#CCN(CC#C)c1ccccc1/C=C/c1cc(=O)c2ccccc2o1 [Compound 10, (E)-2-{2-[Di(prop-2-yn-1-yl)amino]styryl}-4H-chromen-4-one] | 36 ± 18.3 | reversible competitive inhibition | – | –
COc1ccc2c(=O)c3cc4c(cc3oc2c1)-c1cc(Cl)ccc1OC4 [Compound 11r, 2-Chloro-11-methoxy-6H,8H-chromeno[3,4-b]xanthen-8-one] | 57 ± 5.7 | reversible competitive inhibition | 61.3 ± 5.9 | approximately 70%
